The conditions of series [1]: human, cited from earlier work.
The next series concerns hepcidin expression. Nature of the series: Hepcidin and SMAD7 expression in HepG2 human hepatocytes. The note with it: HepG2, 24 hr incubation. In kind it is cell-based. How it is done: FIG. 8A and FIG. 8B. HepG2—24 hr incubation.
Series [2] deals with Hep3B cells transcriptome. Nature of the series: RNA-Seq of Hep3B cells treated with halofuginone. Type of series: cell-based, human.
Series [3] has as its system cell surface heparan sulfate of Hep3B cells. Nature of the series: Heparan sulfate presentation by anti-HS mAb 10E4 staining of Hep3B cells. In kind it is cell-based, human.

Structures are written as SMILES. Entries after “also recorded” stand apart in the source; their conditions may differ. Like-named read-outs stand apart in the source and are kept apart here.

One may read the half-life as the time needed for the level to fall by half in the phase considered.

In the case of `O=C(CC1NCCCC1O)Cn1cnc2cc(Br)c(Cl)cc2c1=O` (racemic) [halofuginone], in series [1] (phase I), the “accumulation, exposure by day 15 of dosing” value is given as “two- to three-fold higher exposure”; the half-life is given as ~3 h; the oral bioavailability result is “orally bioavailable”. For the same compound, the “average Cmax” value in series [1] (single oral administration of 0.5 mg) is 0.54 ng/mL. The “average Cmax” value in series [1] (single oral administration of 3.5 mg) was 3.09 ng/mL. Further, in the series on hepcidin expression, the “BMP induced expression of hepcidin” value was “inhibits BMP induced expression of hepcidin”, the SMAD7 levels result is given as “increases SMAD7 levels” and the “inflammation (IL6) induced expression of hepcidin” value is given as “inhibits inflammation (1L6) induced expression of hepcidin”. Moreover, in series [2] (Hep3B RNA-Seq), the “ATF4-mediated integrated stress response (ISR)” value is recorded as “induced a general ATF4-mediated ISR”; the “expression of host factors exploited by SARS-CoV-2, TMPRSS2 and ACE2” value is recorded as “No significant difference in expression”; the “mRNA of HSPGs GPC2 (GPC1) and SDC1 with HS biosynthetic enzymes B3GAT3 and EXTL3” value was “significantly downregulated”; the “unfolded protein-induced ER stress response” value is on record as “did not activate the unfolded protein-induced ER stress response”. In addition, the differentially expressed genes in series [2] (Hep3B, 200 or 500 nM, 6 h and 18 h) is reported as ~2700 genes. The “effect on heparan sulfate presentation (10E4 binding)” value in series [3] (listed as Halofuginone) is “dose-dependently reduced 10E4 binding; also recorded: dose-dependently reduced the presence of cell surface heparan sulfate”. Further, the “effect on heparan sulfate presentation (10E4 binding)” value in series [3] (listed as halofuginone (MAZ1392)) is “reduced heparan sulfate presentation”.

These data come from patent US20230321101A1, “METHODS AND USES OF HALOFUGINONE” (The Regents of the University of California, priority 2020, published 2023).
